Measurements as given in PubChem BioAssay AID2124 (Sanford-Burnham Center for Chemical Genomics, 2009).
Inconclusive results are not listed. Calls of active or inactive are those of the source. How the calls were made is not given here; tested in MIN6 cells.

Assay: GFP-wavelength compound autofluorescence in cells – imaging, high-content imaging, artefact control, dose response (AID 2124);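 further: cells exposed to compound for 48 hours before fixing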
Details: cells, GFP-channel autofluorescence, high-content imaging, at 10 µM; for z-score: stronger effect = higher value

Cc1cc(C2C(C#N)=C(N)Oc3n[nH]c(C)c32)c(C)s1 (centres undefined)
z-score: -0.25 (inactive) | cell count: 3010 cells

CCCOc1ccc(-c2nn(-c3ccccc3)cc2/C=C2\SC(=S)N(C3CCS(=O)(=O)C3)C2=O)cc1 (centres undefined)
z-score: -0.23 (inactive) | cell count: 2830 cells

COc1cccc(NC(=O)Cn2c(-c3cncs3)nc3ccccc32)c1
z-score: -0.39 (inactive) | cell count: 3160 cells

CCn1nnc2sc3c(c2c1=O)CCC(C)C3 (centres undefined)
z-score: -0.39 (inactive) | cell count: 3170 cells

CCOC(=O)c1ccc(NC(=O)COc2ccc(S(=O)(=O)NC(C)CC)cc2)cc1 (centres undefined)
z-score: -0.33 (inactive) | cell count: 3160 cells

CC1CCCC(C)N1C(=O)CSc1nnc(-c2cccs2)o1 (centres undefined)
z-score: -0.33 (inactive) | cell count: 2440 cells

Nc1ccc(-c2nc3nc(N)nc(N)c3nc2-c2ccc(N)cc2)cc1
z-score: -0.32 (inactive) | cell count: 2980 cells

Cc1ccc(S(=O)(=O)N2CCCC2C(=O)N(C)Cc2cccs2)cc1 (centres undefined)
z-score: -0.39 (inactive) | cell count: 3120 cells

COc1ccc(C2=NC(=O)/C(=C\c3cc(OC)c(OC)c(OC)c3)O2)cc1
z-score: -0.38 (inactive) | cell count: 2830 cells

CCN(CC)c1ccc(/C=N/c2sc3c(c2C#N)C2CCN3CC2)c(O)c1
z-score: 1.45 | cell count: 2490 cells

Nc1c(C(=O)c2ccc(Cl)cc2)sc2nsc(SCCN3CCOCC3)c12
z-score: 0.31 | cell count: 2540 cells

COC(=O)[C@@H](NC(=O)Nc1cccc(OC)c1)C(C)C
z-score: -0.39 (inactive) | cell count: 3030 cells

CNC(=O)C1CC(=O)N/C(=N/N=C(\C)c2cccs2)S1 (centres undefined)
z-score: -0.38 (inactive) | cell count: 3440 cells

O=C(O)CC12CSc3[nH]c(=O)sc3C1c1ccccc1OC2=O (centres undefined)
z-score: -0.33 (inactive) | cell count: 3020 cells

Nc1c(C(=O)Nc2nccs2)sc2nc(-c3cccs3)cc(C(F)(F)F)c12
z-score: 0.39 | cell count: 2940 cells

O=C(N=C1SCC(=O)N1c1ccccc1Cl)c1ccccc1
z-score: -0.31 (inactive) | cell count: 3110 cells

CCc1cc(C(=O)OC)c(NC(=O)CC2Sc3ccc(C(F)(F)F)cc3NC2=O)s1 (centres undefined)
z-score: -0.39 (inactive) | cell count: 2390 cells

CCc1cccc2cc3c(N)c(C(=O)Nc4ccc(S(=O)(=O)N5CCCC5)cc4)sc3nc12
z-score: 0.3 | cell count: 2430 cells

Cc1cc(N/N=C/c2ccc([N+](=O)[O-])o2)nc2ccccc12
z-score: 0.28 | cell count: 733 cells

CCCc1cc(=O)[nH]c(SCC(=O)NCCCC(=O)OCC)n1
z-score: -0.33 (inactive) | cell count: 3040 cells

CCN(CC)c1ccc(C(=O)N/N=C/c2ccc(N3CCOCC3)cc2)cc1
z-score: -0.37 (inactive) | cell count: 3040 cells

O=c1c2ccccc2c(C=Nc2ccccc2O)c(O)n1-c1nccs1
z-score: -0.35 (inactive) | cell count: 2390 cells

Nc1c(C(=O)NC2CCCC2)sc2nc(-c3cccs3)ccc12
z-score: -0.31 (inactive) | cell count: 2460 cells

CN1C(=S)N(c2cccnc2)C(=O)/C1=C\c1ccc(N(C)C)cc1
z-score: -0.22 (inactive) | cell count: 3030 cells

O=C(c1ccc2c(c1)OCO2)N1CCCC1
z-score: -0.33 (inactive) | cell count: 2960 cells

CCN1/C(=C/C=C/c2oc3ccc4ccccc4c3[n+]2CC)Oc2ccc3ccccc3c21
z-score: 1.7 | cell count: 330 cells

CCOc1ccc(NC(=S)N2CCC(N(C)CC3CCCO3)CC2)cc1 (centres undefined)
z-score: -0.33 (inactive) | cell count: 2900 cells

Cc1ccccc1SCc1noc(C(=O)NC(C)C)c1C(=O)O
z-score: -0.39 (inactive) | cell count: 3150 cells

CC(C)(C)c1ccc(OCC(=O)Nc2ccc3c4c(cccc24)C(=O)NC3=O)cc1
z-score: -0.31 (inactive) | cell count: 2490 cells

Nc1c(C(=O)C2CC2)sc2nc(-c3ccccc3)cc(C(F)(F)F)c12
z-score: 0.39 | cell count: 3090 cells

CC1CN(C(=O)CCn2c(=O)oc3ccccc32)CC(C)O1 (centres undefined)
z-score: -0.39 (inactive) | cell count: 3070 cells

CCOc1ccc(OCCCCn2ccnc2)cc1
z-score: -0.39 (inactive) | cell count: 2900 cells

N#Cc1c(C(F)(F)F)cc(-c2ccccc2)nc1SCc1nc(N)nc(N2CCOCC2)n1
z-score: 0.32 | cell count: 3070 cells

C1=C(c2ccccc2)Nc2nnnn2C1
z-score: -0.26 (inactive) | cell count: 3170 cells

CC1(C)Cc2c(ccc3ccccc23)C(c2cc3ccccc3oc2=O)=N1
z-score: -0.33 (inactive) | cell count: 2730 cells

CCCCCn1nc(-c2ccccc2)c2nc3ccccc3nc21
z-score: 1.27 | cell count: 3200 cells

Cc1cccc(-c2ncc(CN3CCCC(CO)(Cc4ccccc4C)C3)cn2)c1 (centres undefined)
z-score: -0.35 (inactive) | cell count: 3340 cells

O=c1c([N+](=O)[O-])cccn1Cc1ccc(F)cc1Cl
z-score: -0.38 (inactive) | cell count: 2960 cells

CCCSc1nc2sc3c(c2c(=O)[nH]1)CCN(Cc1ccccc1)C3
z-score: -0.3 (inactive) | cell count: 3160 cells

Cc1cccc2sc(NNC(=O)c3ccc4c(c3)OCCO4)nc12
z-score: -0.39 (inactive) | cell count: 3230 cells

CCOC(=O)CN1CC23C=CC(O2)C(C(=O)Nc2cc(OC)ccc2OC)C3C1=O (centres undefined)
z-score: -0.38 (inactive) | cell count: 3210 cells

CCOC(=O)COc1ccc(C(=O)NC2CCCCC2)cc1
z-score: -0.38 (inactive) | cell count: 3240 cells

Cc1cc(/C=C2\SC(=S)NC2=O)c(C)n1-c1ccc(O)cc1
z-score: -0.36 (inactive) | cell count: 3000 cells

COc1ccc(/C(O)=C/c2nc3ccc(C(=O)NCCc4cccc(C)c4)cc3[nH]c2=O)cc1OC
z-score: 0.56 | cell count: 1180 cells

N#Cc1c(-c2ccco2)cc(C2CC2)nc1SCC(=O)c1ccccc1
z-score: -0.27 (inactive) | cell count: 3090 cells

O=[N+]([O-])c1ccc(N/N=C/c2c[nH]c3ccccc23)cc1
z-score: 0.33 | cell count: 1200 cells

Cc1ccccc1-n1ncc2c(SCC(=O)NCc3cccs3)ncnc21
z-score: -0.38 (inactive) | cell count: 2670 cells

CCOC(=O)CC1C(=O)NCCN1S(=O)(=O)c1ccc(Cl)cc1Cl (centres undefined)
z-score: -0.33 (inactive) | cell count: 3500 cells

O=[N+]([O-])c1ccc(C2=NN(c3ccccc3)C(c3ccco3)C2)cc1 (centres undefined)
z-score: 0.17 | cell count: 3180 cells

CN(CCCNC(=O)CN1C(=O)CC(C)(C)S(=O)(=O)c2ccccc21)C1CCCCC1
z-score: -0.33 (inactive) | cell count: 3030 cells

O=C(NC1C=CS(=O)(=O)C1)c1sc2ccccc2c1Cl (centres undefined)
z-score: -0.38 (inactive) | cell count: 2120 cells

Oc1c(/C=C/C=C/C=Nc2ccccc2)sc(=S)n1Cc1ccccc1
z-score: -0.33 (inactive) | cell count: 2740 cells

CCn1c2ccccc2c2nnc(SCC(=O)Nc3cc(C)on3)nc21
z-score: -0.33 (inactive) | cell count: 3100 cells

O=C(CSc1nc2ccc(Cl)cc2o1)NCc1ccc2c(c1)OCO2
z-score: -0.33 (inactive) | cell count: 3140 cells

CCN1C(=O)/C(=C/C=C2\N(CC)c3cc(S(=O)(=O)N(C)C)ccc3N2c2ccccc2)SC1=S
z-score: 0.11 | cell count: 2840 cells

COc1cccc(N2CCN(c3ncccn3)CC2)c1
z-score: -0.33 (inactive) | cell count: 3230 cells

COc1cccc(C(=O)CN2C(=O)C(C)(C)Oc3ccc(C(=O)N4CCCCCC4)cc32)c1
z-score: -0.33 (inactive) | cell count: 3680 cells
